What was measured:
Settings in all cases: 72 h
[1] = test system: Vero E6; experiment: cell viability relative to DMSO; higher = less toxic
[2] = test system: Caco-2; experiment: as above
[3] = test system: U2OS; experiment: as above
[4] = test system: Calu-3; experiment: as above
[5] = test system: HepG2; experiment: as above
[6] = test system: Vero E6; experiment: relative viability EC50 (midpoint between 100% and the lowest measured viability); higher = less toxic
[7] = test system: Caco-2; experiment: as above
[8] = test system: U2OS; experiment: as above
[9] = test system: Calu-3; experiment: as above
[10] = test system: HepG2; experiment: as above
[11] = test system: Vero E6; experiment: drug sensitivity score (DSS) for viability; higher = more toxic; extreme values may be limits of the assay
[12] = test system: Caco-2; experiment: as above
[13] = test system: U2OS; experiment: as above
[14] = test system: Calu-3; experiment: as above
[15] = test system: HepG2; experiment: as above

SMILES | cell viability ([1]; 1 nM) | cell viability ([1]; 10 nM) | cell viability ([1]; 100 nM) | cell viability ([1]; 1000 nM) | cell viability ([1]; 10000 nM) | cell viability ([2]; 1 nM) | cell viability ([2]; 10 nM) | cell viability ([2]; 100 nM) | cell viability ([2]; 1000 nM) | cell viability ([2]; 10000 nM) | cell viability ([3]; 1 nM) | cell viability ([3]; 10 nM) | cell viability ([3]; 100 nM) | cell viability ([3]; 1000 nM) | cell viability ([3]; 10000 nM) | cell viability ([4]; 1 nM) | cell viability ([4]; 10 nM) | cell viability ([4]; 100 nM) | cell viability ([4]; 1000 nM) | cell viability ([4]; 10000 nM) | cell viability ([5]; 1 nM) | cell viability ([5]; 10 nM) | cell viability ([5]; 100 nM) | cell viability ([5]; 1000 nM) | cell viability ([5]; 10000 nM) | relative viability EC50 [6] | relative viability EC50 [7] | relative viability EC50 [8] | relative viability EC50 [9] | relative viability EC50 [10] | drug sensitivity score [11] | drug sensitivity score [12] | drug sensitivity score [13] | drug sensitivity score [14] | drug sensitivity score [15]
Nc1c2c(nc3c1CCC3)CCCC2 [ipidacrine] | 96.5% | 96.4% | 95.8% | 94.7% | 108% | 84.5% | 96.4% | 96.3% | 91.8% | 106% | 96.8% | 93.4% | 103% | 94.8% | 99.4% | 99.2% | 99.9% | 88.6% | 90.9% | 100% | 101% | 99.9% | 104% | 94.6% | 109% | > 10 µM | > 10 µM | > 10 µM | > 10 µM | > 10 µM | 0 | 0 | 0 | 0 | 0
COc1cnc(-c2ccc(Cn3c(CC(C)(C)C(=O)O)c(SC(C)(C)C)c4cc(OC[C@@H]5Cc6ccccc6N5C(C)=O)ccc43)cc2)nc1 [AM679] | 114% | 105% | 106% | 99.9% | 128% | 102% | 94% | 99% | 97% | 92.4% | 102% | 99.8% | 99.7% | 100% | 98.1% | 101% | 95.4% | 101% | 109% | 107% | 103% | 104% | 101% | 102% | 93.4% | > 10 µM | > 10 µM | > 10 µM | > 10 µM | > 10 µM | 0 | 0 | 0 | 0 | 0
Cc1nc2c(c(=O)[nH]1)CSCC2 [DR-2313] | 98% | 100% | 97.8% | 94.6% | 108% | 92.6% | 88.9% | 90.1% | 95.7% | 97.4% | 102% | 99.1% | 99.9% | 97.1% | 99.1% | 105% | 92.2% | 95% | 95.5% | 91.9% | 99.8% | 101% | 98.3% | 108% | 94.6% | > 10 µM | > 10 µM | > 10 µM | > 10 µM | > 10 µM | 0 | 0 | 0 | 0 | 0
CC(C)NCC(O)COc1cccc2[nH]c3ccccc3c12 (stereo not given) [carazolol] | 98% | 99.1% | 90.1% | 100% | 99.3% | 97.4% | 89.7% | 104% | 98.1% | 105% | 103% | 96.3% | 102% | 97.8% | 99.7% | 102% | 101% | 90.9% | 95.7% | 106% | 85.6% | 99% | 98.6% | 101% | 104% | > 10 µM | > 10 µM | > 10 µM | > 10 µM | > 10 µM | 0 | 0 | 0 | 0 | 0
C[C@H](c1ccc(F)cc1CCCC(=O)O)N(c1cc(F)ccc1F)S(=O)(=O)c1ccc(Cl)cc1 | 103% | 100% | 102% | 103% | 98.8% | 101% | 97.5% | 112% | 92.6% | 89.5% | 101% | 93.5% | 97.8% | 93.1% | 96.2% | 105% | 98.9% | 99.4% | 103% | 103% | 93.1% | 103% | 94% | 98.8% | 93.6% | > 10 µM | > 10 µM | > 10 µM | > 10 µM | > 10 µM | 0 | 0.1 | 0 | 0 | 0
